Test results published in US11578083B2, “Pyrimidinium compounds and their mixtures for combating animal pests” (BASF SE, priority 2017, dated 2023).

Legend:
Type in all cases: in vivo
[1] = tested on: Rice brown plant hopper (Nilaparvata lugens); experiment: B.2 Rice brown plant hopper, sprayed rice seedlings; details: 72 h
Description: B.2 Rice Brown Plant Hopper (Nilaparvata lugens):
Rice seedlings are cleaned and washed 24 hours before spraying. The active compounds are formulated in 50:50 acetone:water (vol:vol) and 0.1% vol/vol surfactant (EL 620) is added. Potted rice seedlings are sprayed with 5 ml test solution, air dried, placed in cages and inoculated with 10 adults. Treated rice plants are kept at about 28-29° C. and relative humidity of about 50-60%. Percent mortality is recorded after 72 hours.

[2] = tested on: Thrips (Dichromothrips corbetti); experiment: B.4 Thrips floral-immersion test; details: 72 h
Description: B.4 Thrips (Dichromothrips Corbetti):
Dichromothrips corbetti adults used for bioassay are obtained from a colony maintained continuously under laboratory conditions. For testing purposes, the test compound is diluted in a 1:1 mixture of acetone:water (vol:vol), plus 0.01% vol/vol Alkamuls® EL 620 surfactant.
Thrips potency of each compound is evaluated by using a floral-immersion technique. Plastic petri dishes are used as test arenas. All petals of individual, intact orchid flowers are dipped into treatment solution and allowed to dry. Treated flowers are placed into individual petri dishes along with about 20 adult thrips. The petri dishes v then covered with lids. All test arenas are held under continuous light and a temperature of about 28° C. for duration of the assay. After 3 days, the numbers of live thrips are counted on each flower, and along inner walls of each petri dish. The percent mortality is recorded 72 hours after treatment.

Chilo suppressalis = experiment: B.3c Rice striped stem borer, drench application; details: Chilo suppressalis neonates, Dose 10 mg, 14 DAT
Text: The test solution was poured onto the soil of each potted rice plant (=replicate) with five tillers each pot. After drench application, treated plants were transferred inside the screenhouse for three days prior to stemborer inoculation inside the laboratory. Three days after drench application, 5 to 6-day old egg masses of CHILSU were used for inoculation. All stemborer-infested potted rice plants were transferred inside the screenhouse 1 day after inoculation until the final assessment. […] Whole plant damage was assessed before cutting each hill at the basal portion for tiller dissection. Each dissected tiller was inspected looking for dead (if possible) and alive stemborer larvae.

[3] = tested on: vetch aphid (Megoura viciae); experiment: Test 1 vetch aphid, leaf disks (mixtures); details: Table 1, solo application I-R-1, use rate 20 ppm
Text: Synergism can be described as an interaction where the combined effect of two or more compounds is greater than the sum of the individual effects of each of the compounds. The presence of a synergistic effect in terms of percent control, between two mixing partners (X and Y) can be calculated using the Colby equation (Colby, S. R., 1967, Calculating Synergistic and Antagonistic Responses in Herbicide Combinations, Weeds, 15, 20-22):
When the observed combined control effect is greater than the expected combined control effect (E), then the combined effect is synergistic.
The analysis of synergism or antagonism between the mixtures or compositions was determined using Colby's equation.
For evaluating control of vetch aphid (Megoura viciae) through contact or systemic means the test unit consisted of 24-well-microtiter plates containing broad bean leaf disks.
The compounds or mixtures were formulated using a solution containing 75% water and 25% DMSO. Concentrations of formulated compounds or mixtures were sprayed onto the leaf disks at 2.5 μl, using a custom built micro atomizer, at two replications. […]
After application, the leaf disks were air-dried and 5-8 adult aphids placed on the leaf disks inside the microtiter plate wells. […] Aphid mortality and fecundity was then visually assessed.

[4] = tested on: boll weevil (Anthonomus grandis); experiment: Test 3 boll weevil, insect diet with eggs (mixtures)
Description: (§1) For evaluating control of boll weevil (Anthonomus grandis) the test unit consisted of 24-well-microtiter plates containing an insect diet and 20-30 A. grandis eggs.
(§2) The compounds or mixtures were formulated using a solution containing 75% water and 25% DMSO. Concentrations of formulated compounds or mixtures were sprayed onto the insect diet at 20 μl, using a custom built micro atomizer, at two replications.
(§3) For experimental mixtures in these tests identical volumes of both mixing partners at the desired concentrations respectively, were mixed together.
(§4) After application, microtiter plates were incubated at 23±1° C., 50±5% RH for 5 days. Egg and larval mortality was then visually assessed.

[5] = tested on: tobacco budworm (Heliothis virescens); experiment: Test 4 tobacco budworm, insect diet with eggs (mixtures)
Description: For evaluating control of tobacco budworm (Heliothis virescens) the test unit consisted of 96-well-microtiter plates containing an insect diet and 15-25 H. virescens eggs.
The compounds or mixtures were formulated using a solution containing 75% water and 25% DMSO. Concentrations of formulated compounds or mixtures were sprayed onto the insect diet at 10 μl, using a custom built micro atomizer, at two replications.
as §3
After application, microtiter plates were incubated at 28±1° C., 80±5% RH for 5 days. Egg and larval mortality was then visually assessed.

[6] = tested on: brown planthopper (Nilaparvata lugens); experiment: Test 6 brown planthopper, foliar spray (mixtures); details: solo application I-R-1, use rate 5 ppm
Description: For evaluating control of brown planthopper (Nilaparvata lugens) by foliar spray method. Clean potted rice seedlings with upper leaf portion cut are properly labeled. Placed three potted rice plants per treatment concentration/combination on top of the rotating disc (270 mm) and sprayed with the 12 mL spray solution. Treated plants are allowed to air-dry in the laboratory for about an hour. After air-drying, covered each treated rice plant. Each treated plant was infested with brown planthoppers using a suction vacuum. Plants are maintained at 27° C.±1° C., 50±5% RH and 24 hours light conditions in a holding room. Percent mortality is recorded 7 days after infestation by counting both the dead and alive brown planthoppers on the plants and on the water.

[7] = tested on: boll weevil (Anthonomus grandis); experiment: Test 9 boll weevil, insect diet with eggs (mixtures)
Description: as §1, §2, §3, §4

[8] = tested on: yellow fever mosquito (Aedes aegypti); details: Table 12; Yellow Fever Mosquito; solo application I-R-1, use rate 10 ppm
Description: For evaluating control of yellow fever mosquito (Aedes aegypti) the test unit consisted of 96-well-microtiter plates containing 200 μl of tap water per well and 5-15 freshly hatched A. aegypti larvae.
The compounds or mixtures were formulated using a solution containing 75% water and 25% DMSO. Different concentrations of formulated compounds or mixtures were sprayed onto the insect diet at 2.5 μl, using a custom built micro atomizer, at two replications.
as §3
After application, microtiter plates were incubated at 28±1° C., 80±5% RH for 2 days. Larval mortality was then visually assessed.

In the case of C[n+]1c([O-])c(-c2ccccc2)c(=O)n2c1SC[C@@H]2c1cnc(Cl)s1 [I-R-1, (3R)-3-(2-chlorothiazol-5-yl)-8-methyl-7-oxo-6-phenyl-2,3-dihydrothiazolo[3,2-a]pyrimidin-4-ium-5-olate], the mortality at 1 ppm [1] is reported as 90%, the mortality at 10 ppm [2] is reported as 100% and the “Feeding damage (%)” value (Chilo suppressalis) is reported as 7%. It also gave an Average control % [3] of 0%, an Average control % ([4]; Table 3.1, solo application I-R-1, use rate 50 ppm) of 0% and an Average control % ([4]; Table 3.2, solo application I-R-1, use rate 2 ppm) of 0%. For the same molecule, the Average control % ([4]; Table 3.3, solo application I-R-1, use rate 2 ppm) was 0%, the Average control % ([5]; Table 4.1, solo application I-R-1, use rate 10 ppm) was 0% and the Average control % ([5]; Table 4.2, solo application I-R-1, use rate 0.4 ppm) was 0%. The Average control % ([6]; Table 6.1, after 7 days) was 62%, the Average control % ([6]; Table 6.2, after 7 days) was 62% and the Average control % ([7]; Table 9.1, solo application I-R-1, use rate 50 ppm) was 25%. It also gave an Average control % ([7]; Table 9.2, solo application I-R-1, use rate 10 ppm) of 25% and an Average control % [8] of 0%.
